In this assay the target is cAMP and cAMP-inhibited cGMP 3',5'-cyclic phosphodiesterase 10A (Homo sapiens, UniProt Q9Y233). The experiment in a line: Fluorescence Polarization Assay: In a typical experiment the PDE10 inhibitory activity of the compounds of the present invention was determined in accordance with the following experimental method. PDE10A2 was amplified from human fetal brain cDNA (Clontech, Mountain View, Calif.) using a forward primer corresponding to nucleotides 56-77 of human PDE10A2 (Accession No. AF127480, Genbank Identifier 4894716), containing a Kozak consensus sequence, and a reverse primer corresponding to nucleotides 2406-2413 of human PDE10A2 (Accession No. AF127480, Genbank Identifier 4894716). Amplification with Easy-A polymerase (Stratagene, La Jolla, Calif.) was 95° C. for 2 minutes followed by thirty three cycles of 95° C. for 40 seconds, 55° C. for 30 seconds, and 72° C. for 2 minutes 48 seconds. Final extension was 72° C. for 7 minutes. The PCR product was TA cloned into pcDNA3.2-TOPO (Invitrogen, Carlsbad, Calif.) according to standard protocol. AD293 cells with 70-80% confluency were transiently transfected with human PDE10A2.
cAMP and cAMP-inhibited cGMP 3',5'-cyclic phosphodiesterase 10A, sequence (Q9Y233 whole entry): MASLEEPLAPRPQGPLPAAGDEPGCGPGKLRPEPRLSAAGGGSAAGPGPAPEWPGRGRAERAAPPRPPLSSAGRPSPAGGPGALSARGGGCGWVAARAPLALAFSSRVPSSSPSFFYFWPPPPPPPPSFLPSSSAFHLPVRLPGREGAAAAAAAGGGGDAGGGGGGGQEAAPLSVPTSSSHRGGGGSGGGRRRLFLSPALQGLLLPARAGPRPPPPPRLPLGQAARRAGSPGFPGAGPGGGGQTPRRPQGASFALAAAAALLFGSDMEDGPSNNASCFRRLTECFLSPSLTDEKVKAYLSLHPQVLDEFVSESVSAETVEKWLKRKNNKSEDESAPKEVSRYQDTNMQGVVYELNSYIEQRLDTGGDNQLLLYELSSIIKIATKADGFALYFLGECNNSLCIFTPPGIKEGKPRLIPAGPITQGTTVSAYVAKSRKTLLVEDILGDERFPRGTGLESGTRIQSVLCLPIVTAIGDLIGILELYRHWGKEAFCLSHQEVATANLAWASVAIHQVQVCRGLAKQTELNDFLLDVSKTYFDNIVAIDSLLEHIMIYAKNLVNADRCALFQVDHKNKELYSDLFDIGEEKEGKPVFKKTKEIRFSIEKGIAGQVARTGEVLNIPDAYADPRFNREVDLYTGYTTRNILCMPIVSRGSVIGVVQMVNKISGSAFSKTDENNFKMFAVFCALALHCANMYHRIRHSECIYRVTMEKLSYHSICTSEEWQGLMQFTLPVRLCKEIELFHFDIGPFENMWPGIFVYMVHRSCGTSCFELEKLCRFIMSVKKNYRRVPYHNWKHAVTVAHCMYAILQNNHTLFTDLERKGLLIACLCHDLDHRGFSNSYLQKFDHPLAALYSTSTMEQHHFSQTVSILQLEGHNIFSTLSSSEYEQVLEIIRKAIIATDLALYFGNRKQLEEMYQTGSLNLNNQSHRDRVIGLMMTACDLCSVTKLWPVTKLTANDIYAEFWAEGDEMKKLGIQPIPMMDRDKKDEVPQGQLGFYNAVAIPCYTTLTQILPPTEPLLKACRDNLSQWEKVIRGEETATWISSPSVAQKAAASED

Molecule `Cc1nc(C2CC2c2nc3ccc(F)cc3[nH]2)cc(-n2nc(C)nc2C)n1` (configuration not stated) came in with a Ki of 14.2 nM.

The molecule `COc1ccc(COc2cc(-n3nc(C)nc3Cc3ccc(OC)c(OC)c3)nc(C)n2)nc1` displayed a Ki of 3.3 nM.

The values are drawn from ChEMBL document CHEMBL3886390, “Triazolyl PDE10 inhibitors” (2015).
